# Laboratory results from publication PMC12647645, “Structural interactions of BWC0977 with Klebsiella pneumoniae topoisomerase IV and biochemical basis of its broad-spectrum activity” (Communications Biology, 2025).
# “And” between values parts separate entries of the source, which are not always exact repeats. Equal values may be shown once. Read-outs that look alike come from different tables or passages of the source.
# Legend:
# K. pneumoniae BAA 2782 = assay: microbe, parasite or virus in culture; format: cell-based; settings: Klebsiella pneumoniae, BAA2782
# E. coli ATCC 25922 = assay: Resistant mutant generation by serial passage method; format: cell-based; settings: Escherichia coli, read-out: MIC, serial passage
# P. aeruginosa gyrase = P. aeruginosa gyrase (Pseudomonas aeruginosa, UniProt P48372+Q9I7C2); assay: biochemical; settings: for Gyrase supercoiling inhibition response: P. aeruginosa gyrase
# P. aeruginosa ATCC 27853 [1] = assay: MIC broth microdilution; format: cell-based; settings: Pseudomonas aeruginosa, ATCC27853
# E. coli topoisomerase IV = target: T1, E. coli topoisomerase IV (Escherichia coli, UniProt P0AFI2+P20083); assay: biochemical; format: biochemical
# T1 construct: purchased Inspiralis
# E. coli gyrase = target: T2, E. coli gyrase (Escherichia coli, UniProt P0AES4+P0AES6); assay: biochemical; format: biochemical; settings: for Gyrase supercoiling inhibition response: E. coli WT gyrase
# T2 construct: purchased Inspiralis
# P. aeruginosa ATCC 27853 [2] = settings: 4× MIC
# Experimental: Spontaneous resistance frequencies to BWC0977 were evaluated in E. coli ATCC 25922, P. aeruginosa ATCC 27853, and A. baumannii ATCC 19606. Mid-logarithmic phase cultures (~10^9 CFU/mL) were plated onto Luria-Bertani agar containing BWC0977 at 4×, 8×, and 16× the respective MICs. Plates were incubated at 37 °C for 24–36 h, and resistance frequencies were estimated by counting colony-forming units (CFUs) on the drug-containing plates. MICs of the isolated colonies were determined, and the gyrA, gyrB, parC, and parE genes were sequenced to assess for target-site mutations.
# E. coli BAA 2471 = assay: microbe, parasite or virus in culture; format: cell-based; settings: Escherichia coli, BAA2471
# [3] = target: S. aureus topoisomerase IV (Staphylococcus aureus, UniProt P0C1S7+P0C1U9); assay: biochemical; parameters: Topo IV decatenation inhibition response: unit not given here
# Experimental: Assays with P. aeruginosa topoisomerase IV (3 nM) were conducted in a similar buffer but with 50 mM HEPES-KOH (pH 7.9), 100 mM potassium glutamate, 6 mM magnesium acetate, 6 mM DTT, 1 mM ATP, 2 mM spermidine, and 50 μg/mL albumin. For S. aureus topoisomerase IV assay, the reactions contained 4 nM enzyme in an assay buffer composed of 50 mM Tris-HCl (pH 7.5), 5 mM MgCl₂, 5 mM DTT, 1.5 mM ATP, 350 mM potassium glutamate, and 0.05 mg/mL albumin. The procedures followed were consistent with those used in the supercoiling assays. Decatenated minicircles were resolved on 0.8% agarose gels, while the kDNA substrate remained in the wells. Gels were stained with 0.8 μg/mL ethidium bromide solution for 10 min, followed by destaining. DNA bands were visualized using a gel documentation system, and compound inhibition analysis was carried out using the same procedures described for the supercoiling assays.
# P. aeruginosa BAA 2797 = assay: microbe, parasite or virus in culture; format: cell-based; settings: Pseudomonas aeruginosa, BAA2797
# [4] = system: E. coli MG1655 GyrA WT, ParC D79N; assay: microbe, parasite or virus in culture; format: cell-based; settings: Escherichia coli
# E. faecalis ATCC 29212 = assay: MIC broth microdilution; format: cell-based; settings: Enterococcus faecalis, ATCC29212
# E. faecium = system: E. faecium; parameters: method as in ref 6 (Hameed P et al., 2024); settings: ref 6 (Hameed P et al., 2024); cited from earlier work
# A. baumannii BAA 2885 = assay: microbe, parasite or virus in culture; format: cell-based; settings: Acinetobacter baumannii, BAA2885
# Human topo IIß = Human topo IIß (Homo sapiens, UniProt Q02880); assay: Human topo IIß decatenation assay; format: biochemical
# Experimental: Human topo IIα (0.9 nM) and topo IIß (2.2 nM) decatenation assays were performed following the same protocol used for bacterial topoisomerase IV decatenation assays. The assay buffer was made of 50 mM Tris. HCl (pH 7.5), 125 mM NaCl, 10 mM MgCl2, 5 mM DTT, and 100 μg/mL albumin.
# P. aeruginosa = system: P. aeruginosa; parameters: method as in ref 6 (Hameed P et al., 2024); settings: ref 6 (Hameed P et al., 2024); cited from earlier work
# E. coli tolC strain = assay: MIC, efflux-deficient strain; format: cell-based
compound,measurement,setting,value
Cn1c(=O)ccc2ccc(F)c(CCNC[C@H]3CN(c4cnc5c(n4)NC(=O)CO5)C(=O)O3)c21 [BWC0977],MIC,K. pneumoniae BAA 2782,0.125 µg/mL
same,MIC,"E. coli ATCC 25922; ATCC25922, 24 h",0.015 µg/mL
same,MIC,"E. coli ATCC 25922; ATCC25922, 288 h",0.125 µg/mL
same,IC50,P. aeruginosa gyrase,9.4 nM
same,Gyrase supercoiling inhibition response,"P. aeruginosa gyrase; compound 0.0005 μM, source data Fig 2B, listed as 977, 0.0005 µM",6.77
same,Gyrase supercoiling inhibition response,"P. aeruginosa gyrase; compound 0.001 μM, source data Fig 2B, listed as 977, 0.001 µM",9.59
same,Gyrase supercoiling inhibition response,"P. aeruginosa gyrase; compound 0.004 μM, source data Fig 2B, listed as 977, 0.004 µM",27.41
same,Gyrase supercoiling inhibition response,"P. aeruginosa gyrase; compound 0.012 μM, source data Fig 2B, listed as 977, 0.012 µM",48.08
same,Gyrase supercoiling inhibition response,"P. aeruginosa gyrase; compound 0.037 μM, source data Fig 2B, listed as 977, 0.037 µM",69.93
same,Gyrase supercoiling inhibition response,"P. aeruginosa gyrase; compound 0.111 μM, source data Fig 2B, listed as 977, 0.111 µM",87.28
same,Gyrase supercoiling inhibition response,"P. aeruginosa gyrase; compound 0.333 μM, source data Fig 2B, listed as 977, 0.333 µM",93.63
same,Gyrase supercoiling inhibition response,"P. aeruginosa gyrase; compound 1 μM, source data Fig 2B, listed as 977, 1 µM",99.48
same,Gyrase supercoiling inhibition response,"P. aeruginosa gyrase; compound 3 μM, source data Fig 2B, listed as 977, 3 µM",100.23
same,inhibition at 0.0005 µM,"P. aeruginosa gyrase; read-out: Gyrase supercoiling inhibition response, P. aeruginosa gyrase, compound 0.0005 μM, source data Fig 2B",12.6%
same,inhibition at 0.001 µM,"P. aeruginosa gyrase; read-out: Gyrase supercoiling inhibition response, P. aeruginosa gyrase, compound 0.001 μM, source data Fig 2B",16.5%
same,inhibition at 0.004 µM,"P. aeruginosa gyrase; read-out: Gyrase supercoiling inhibition response, P. aeruginosa gyrase, compound 0.004 μM, source data Fig 2B",32.4%
same,inhibition at 0.012 µM,"P. aeruginosa gyrase; read-out: Gyrase supercoiling inhibition response, P. aeruginosa gyrase, compound 0.012 μM, source data Fig 2B",61.3%
same,inhibition at 0.037 µM,"P. aeruginosa gyrase; read-out: Gyrase supercoiling inhibition response, P. aeruginosa gyrase, compound 0.037 μM, source data Fig 2B",85.1%
same,inhibition at 0.111 µM,"P. aeruginosa gyrase; read-out: Gyrase supercoiling inhibition response, P. aeruginosa gyrase, compound 0.111 μM, source data Fig 2B",97.4%
same,inhibition at 0.333 µM,"P. aeruginosa gyrase; read-out: Gyrase supercoiling inhibition response, P. aeruginosa gyrase, compound 0.333 μM, source data Fig 2B",99%
same,inhibition at 1 µM,"P. aeruginosa gyrase; read-out: Gyrase supercoiling inhibition response, P. aeruginosa gyrase, compound 1 μM, source data Fig 2B",99.8%
same,inhibition at 3 µM,"P. aeruginosa gyrase; read-out: Gyrase supercoiling inhibition response, P. aeruginosa gyrase, compound 3 μM, source data Fig 2B",103%
same,MIC,P. aeruginosa ATCC 27853 [1],0.125 µg/mL
same,Topo IV decatenation inhibition response,"E. coli topoisomerase IV; E. coli topo IV, compound 0.008 μM, source data Fig 2A, listed as 977, 0.008 µM",28.08 and 39.25
same,inhibition at 0.008 µM,"E. coli topoisomerase IV; E. coli topo IV, compound 0.008 μM, source data Fig 2A, read-out: Topo IV decatenation inhibition response",30.8%
same,Topo IV decatenation inhibition response,"E. coli topoisomerase IV; E. coli topo IV, compound 0.074 μM, source data Fig 2A, listed as 977, 0.074 µM",89.53 and 79.92
same,inhibition at 0.074 µM,"E. coli topoisomerase IV; E. coli topo IV, compound 0.074 μM, source data Fig 2A, read-out: Topo IV decatenation inhibition response",75.6%
same,Topo IV decatenation inhibition response,"E. coli topoisomerase IV; E. coli topo IV, compound 0.222 μM, source data Fig 2A, listed as 977, 0.222 µM",92.32 and 88.38
same,inhibition at 0.222 µM,"E. coli topoisomerase IV; E. coli topo IV, compound 0.222 μM, source data Fig 2A, read-out: Topo IV decatenation inhibition response",83.4%
same,Topo IV decatenation inhibition response,"E. coli topoisomerase IV; E. coli topo IV, compound 2 μM, source data Fig 2A, listed as 977, 2 µM",94.13 and 90.30
same,inhibition at 2 µM,"E. coli topoisomerase IV; E. coli topo IV, compound 2 μM, source data Fig 2A, read-out: Topo IV decatenation inhibition response",84.8%
same,higher inhibition potency compared to compound 17a,E. coli topoisomerase IV; E. coli topoisomerase IV,~ 20 fold
same,IC50,E. coli topoisomerase IV; read-out: IC50 E. coli topo IV decatenation,13 ± 4 nM
same,IC50,E. coli gyrase,4 ± 1 nM
same,Gyrase supercoiling inhibition response,"E. coli gyrase; compound 0.0003 μM, source data Fig 2A/6A, 0.0003 µM",7.2 and 10.3 and 5.8
same,Gyrase supercoiling inhibition response,"E. coli gyrase; compound 0.0003 μM, source data Fig 2A/6A, listed as 977, 0.0003 µM",10.30 and 5.78
same,Gyrase supercoiling inhibition response,"E. coli gyrase; compound 0.008 μM, source data Fig 2A/6A, 0.008 µM",69.7 and 73.4
same,Gyrase supercoiling inhibition response,"E. coli gyrase; compound 0.008 μM, source data Fig 2A/6A, listed as 977, 0.008 µM",73.65 and 69.70 and 73.41
same,Gyrase supercoiling inhibition response,"E. coli gyrase; compound 0.074 μM, source data Fig 2A/6A, 0.074 µM",93.3 and 92.7
same,Gyrase supercoiling inhibition response,"E. coli gyrase; compound 0.074 μM, source data Fig 2A/6A, listed as 977, 0.074 µM",89.29 and 93.34 and 92.67
same,Gyrase supercoiling inhibition response,"E. coli gyrase; compound 0.222 μM, source data Fig 2A/6A, 0.222 µM",96.5 and 97.7 and 91.5
same,Gyrase supercoiling inhibition response,"E. coli gyrase; compound 0.222 μM, source data Fig 2A/6A, listed as 977, 0.222 µM",97.67 and 91.52
same,Gyrase supercoiling inhibition response,"E. coli gyrase; compound 2 μM, source data Fig 2A/6A, 2 µM",100.2 and 100.3 and 98.6
same,Gyrase supercoiling inhibition response,"E. coli gyrase; compound 2 μM, source data Fig 2A/6A, listed as 977, 2 µM",100.30 and 98.60
same,higher inhibition potency compared to compound 17a,E. coli gyrase; E. coli gyrase,~ 20 fold
same,inhibition at 0.0003 µM,"E. coli gyrase; read-out: Gyrase supercoiling inhibition response, E. coli WT gyrase, compound 0.0003 μM, source data Fig 2A/6A",7.23%
same,inhibition at 0.008 µM,"E. coli gyrase; read-out: Gyrase supercoiling inhibition response, E. coli WT gyrase, compound 0.008 μM, source data Fig 2A/6A",73.7%
same,inhibition at 0.074 µM,"E. coli gyrase; read-out: Gyrase supercoiling inhibition response, E. coli WT gyrase, compound 0.074 μM, source data Fig 2A/6A",89.3%
same,inhibition at 0.222 µM,"E. coli gyrase; read-out: Gyrase supercoiling inhibition response, E. coli WT gyrase, compound 0.222 μM, source data Fig 2A/6A",96.5%
same,inhibition at 2 µM,"E. coli gyrase; read-out: Gyrase supercoiling inhibition response, E. coli WT gyrase, compound 2 μM, source data Fig 2A/6A",100%
same,resistance frequency,P. aeruginosa ATCC 27853 [2],less than 1 × 10^−9
same,MIC,E. coli BAA 2471,0.5 µg/mL
same,IC50,[3],110 nM
same,inhibition at 0.0037 µM,"[3]; S. aureus topo IV, compound 0.0037 μM, source data Fig 2C, read-out: Topo IV decatenation inhibition response",0%
same,Topo IV decatenation inhibition response,"[3]; S. aureus topo IV, compound 0.0988 μM, source data Fig 2C, listed as 977, 0.0988 µM",31.67 and 43.21 and 56.17
same,Topo IV decatenation inhibition response,"[3]; S. aureus topo IV, compound 0.2963 μM, source data Fig 2C, listed as 977, 0.2963 µM",76.23 and 76.66
same,inhibition at 0.2963 µM,"[3]; S. aureus topo IV, compound 0.2963 μM, source data Fig 2C, read-out: Topo IV decatenation inhibition response",67%
same,Topo IV decatenation inhibition response,"[3]; S. aureus topo IV, compound 0.8889 μM, source data Fig 2C, listed as 977, 0.8889 µM",92.92 and 90.9
same,inhibition at 0.8889 µM,"[3]; S. aureus topo IV, compound 0.8889 μM, source data Fig 2C, read-out: Topo IV decatenation inhibition response",89.7%
same,inhibition at 2.6667 µM,"[3]; S. aureus topo IV, compound 2.6667 μM, source data Fig 2C, read-out: Topo IV decatenation inhibition response",98.1%
same,Topo IV decatenation inhibition response,"[3]; S. aureus topo IV, compound 8 μM, source data Fig 2C, listed as 977, 8 µM",99.9 and 99.56
same,inhibition at 8 µM,"[3]; S. aureus topo IV, compound 8 μM, source data Fig 2C, read-out: Topo IV decatenation inhibition response",99.7%
same,MIC,P. aeruginosa BAA 2797,0.25 µg/mL
same,MIC,[4],0.03 µg/mL
same,MIC,E. faecalis ATCC 29212,0.03 µg/mL
same,MIC90 against diverse global isolates,E. faecium,0.12 µg/mL
same,MIC,A. baumannii BAA 2885,0.5 µg/mL
same,IC50,Human topo IIß,> 200000 nM
same,MIC90 against diverse global isolates,P. aeruginosa,1 µg/mL
same,difference in MICs between tolC strain and wild-type strain,E. coli tolC strain,10 fold
same,MIC,E. coli tolC strain; Escherichia coli,0.001 µg/mL
